# Assay: Human HepG2 cell viability assay in 384 well format
# Type: toxicity, cell-based
# Parameters: dose 125 nL, time 70.5 hour; cytotoxicity at 70.5 h: concentration not given beside the values
# Conditions: HepG2 cells, read-out: Inhibition
row,Structure (SMILES),cytotoxicity at 70.5 h
1,COCCSCC(=O)NCc1ccc(N(C)C)cc1,-0.963%
2,OC(COCc1cccs1)CSc1nnc2ccccn12 (stereo not drawn),22.9%
3,Cc1cccc(COC[C@@H]2CC[C@H]3[C@H](CCN3Cc3ccco3)O2)n1,-6.18%
4,O=C(c1cccnc1)N1C[C@@H]2CC[C@H](C1)N(Cc1ccc(F)cc1Cl)C2,2.53%
5,Cc1nc2ccc(C(=O)N3CCC(COc4ccccn4)CC3)cc2[nH]1,44.6%
6,CCn1ncnc1CN1CCOC(Cc2cccc3ccccc23)C1 (stereo not drawn),-7.56%
7,CCOCCC(=O)Nc1cc(C(N)=O)ccc1N1CCCC(C)C1 (stereo not drawn),-2.01%
8,COc1ccccc1OCCCN1C(=O)CCNC1=O,32%
9,COCCN(Cc1sccc1C)C(=O)COc1cccnc1,-4.34%
10,CC(=O)N1CCN(C)CC(COCc2ccccc2)C1 (stereo not drawn),-3.41%
11,NC(=O)C(NC1CCN(Cc2ccc(F)cc2)CC1)c1ccccc1 (stereo not drawn),-13.1%
12,CS(=O)(=O)c1cc(S(N)(=O)=O)ccc1NCC1CCCO1 (stereo not drawn),-3.22%
13,Cc1ccc2c(c1)C1(CCN(C(N)=O)CC1)CN2C(=O)N(C)C,-7.46%
14,CCc1nnc(C(C)N2CCN(CCC(=O)NC3CC3)CC2)o1 (stereo not drawn),22%
15,CN(Cc1ccccc1F)Cc1cc2c(cc1Br)OCCO2,-9.57%
16,Cc1ccc(NC2CCN(C(=O)Cc3ccc(C#N)cc3)CC2)nn1,-1.55%
17,CC(C)C(=O)NCc1ccccc1NS(=O)(=O)c1ccccc1,-3.22%
18,CC(OCC1CC1)C(=O)N1CCCN(c2cccnn2)CC1 (stereo not drawn),-5.5%
19,CCCc1nc(C)c(C(=O)NS(=O)(=O)c2cccnc2)s1,-0.303%
20,CC(C)N1CCc2c(c(COc3cccnc3)nn2CC2CC2)C1,-2.06%
21,Cc1nc(CNC(=O)NCCC2=CCCC2)oc1C,7.64%
22,Fc1cc(CNCc2ccc3c(c2)CCO3)ccc1N1CCOCC1,-6.5%
23,NC(=O)CCN(CC(=O)NCc1ccccn1)c1ccc(F)cc1,-9.69%

row,Structure (SMILES),cytotoxicity at 70.5 h
1,Cc1noc(C2CCN(Cn3cc(Br)cn3)CC2)n1,-8.17%
2,COc1ccc(Nc2ncccc2C#N)cc1N1CCCC1=O,5.71%
3,CC(c1ccncc1)N(C)C(=O)NCCOc1ccc(C#N)cc1 (stereo not drawn),16.9%
4,CCNC(=O)NC1CN(Cc2ccncc2Cl)C[C@@H]1OC (stereo partly drawn),28.4%
5,COC1CCN(C(=O)Nc2cc(C(F)(F)F)c[nH]c2=O)CC1,-6.98%
6,Fc1cnc(N2CCCC3(CCN(Cc4ccoc4)C3)C2)nc1 (stereo not drawn),11.2%
7,COc1cc(N2CCC3(CCCN(C(=O)c4cnccn4)C3)C2)ncn1 (stereo not drawn),17%
8,CCOC(=O)N1CCN(c2nc(N3CCCC3)c3ccccc3n2)CC1,-6.36%
9,Nc1cc(C(=O)N2CCC(Oc3cccc(C(F)(F)F)c3)CC2)ccn1,-3.83%
10,CCC(NC(=O)CC1CCN(C(C)C)CC1)c1cn2cccnc2n1 (stereo not drawn),1.45%
11,O=C(c1ccc2c(c1)CCC2)N1CCn2ncnc2C1,3.48%
12,Cc1cnc(N2CC[C@@H]3CN(CCC(C)C)S(=O)(=O)[C@@H]3CC2)nc1,-1.61%
13,CC(C)c1nc(C2CCCN2Cc2ccncc2Cl)no1 (stereo not drawn),-11.2%
14,O=C(NCC1(O)CCOC1)c1ccccc1Cl (stereo not drawn),-3.89%
15,Cc1cc(NC(=O)N2CCN(c3nc(C)c(C)s3)CC2)no1,21.7%
16,CC(C)[C@@H]1CN(Cc2cnc(C3CCCCC3)nc2)C[C@H]1N(C)C,8.03%
17,CN(C)c1nc2c(c(N3CCCC3)n1)CCN(C(=O)c1ccc[nH]1)CC2,25.5%
18,Cc1ncsc1CN1CC[C@H]2OCC[C@@]2(C(=O)NCC2CC2)C1,-3.48%
19,COc1ccc(NC(=O)N2CCOCC(CN(C)C)C2)c(C)c1 (stereo not drawn),17.5%
20,CCCN1CCCn2c(nc(CNC(=O)c3nccn3C)cc2=O)C1,-9.48%
21,O=C(COc1cccc(F)c1)N1C[C@@H](O)[C@H](N2CCCC2)C1,-10.1%
22,CC1COCCN1Cc1nc(-c2cccc(Br)c2)no1 (stereo not drawn),13.8%
23,CC(C)OCCN(C)CC(c1cccs1)N1CCOCC1 (stereo not drawn),29.2%

row,Structure (SMILES),cytotoxicity at 70.5 h
1,CN1CCCc2sc(C(=O)NC3CC3)nc21,-1.86%
2,C[C@@H]1CN(c2ccc3c(Cl)ccnc3c2F)CC(C(N)=O)O1 (stereo partly drawn),-4.78%
3,COCc1nc(N(C)C)ncc1C(=O)Nc1ccn(C)n1,5.17%
4,COc1ccc(C(C)N2CCC(C(=O)N(C)C)CC2)cc1Cl (stereo not drawn),-7.99%
5,CN(C)[C@@H]1CCN(C(=O)c2ccsc2)[C@H]1Cc1cccnc1,2.91%
6,Cc1ccc(S(=O)(=O)N2C[C@H]3C[C@H](NC(=O)c4ccnn4C)[C@H]3C2)cc1,46.1%
7,CCOCCn1nc(C)cc1C(=O)N1CC(C)(C)[C@@](C)(O)C1,-2.57%
8,COc1cc(C#N)ccc1OCC(=O)NS(=O)(=O)c1ccccc1,-7.96%
9,C[C@]1(O)CN(CC(=O)N2CCCC2)CC[C@@H]1Oc1cccc(F)c1,17.5%
10,Cc1nc(NCCSc2ccccn2)c2c(C)noc2n1,-4.96%
11,Cc1n[nH]c2c1C(c1ccc3c(c1)OCO3)SCC(=O)N2 (stereo not drawn),25.4%
12,c1ccc(OCC2CC3(CCN(Cc4ccncc4)CC3)CO2)nc1 (stereo not drawn),-18.6%
13,CN(C)C(=O)N1CCN(Cc2nc3ccccc3[nH]2)[C@H]2CS(=O)(=O)C[C@H]21,25%
14,CC(C)=CCn1ncc(N2CCCCC2)cc1=O,-3.13%
15,Cc1cc(N(C)C)nc(N2CCN(C(C)c3nc(C)no3)CC2)n1 (stereo not drawn),22.7%
16,Cc1nnc2ccc(OCCNS(C)(=O)=O)nn12,-0.867%
17,CC(C)C(=O)NCCNc1nccc(-c2cc(C(=O)O)ccn2)n1,-0.446%
18,Cc1ccc(Cl)c(CN2CCN(C)C(C(=O)O)C2)c1F (stereo not drawn),-5.85%
19,CC(C)(C)CN(CCC#N)C(=O)c1cccc(CN2CCCC2)c1,4.22%
20,Cc1ccc2cc(C(=O)N3CCC(Nc4cccnn4)CC3)[nH]c2c1,21.4%
21,CSCC(=O)N(C)Cc1ccccc1,-6.59%
22,Cc1cc(-c2cnc(NCc3ccc4c(c3)OCO4)nc2C(C)C)on1,-4.67%
23,O=S(=O)(c1ccc(-c2cnco2)cc1)N1CCCC(O)(CO)CC1 (stereo not drawn),12.5%

row,Structure (SMILES),cytotoxicity at 70.5 h
1,CC(C)(C)C(=O)CN1CCc2ccccc2NCCC1=O,3.4%
2,CN(Cc1cccnc1)C[C@@H]1OC[C@H]2CN(Cc3ccco3)CC[C@H]21,-2.49%
3,CCc1nc(CN2CCOC(Cn3nc(C)cc3C)C2)no1 (stereo not drawn),38.2%
4,Fc1ccccc1C1(CNC2CCOC3(CCOCC3)C2)CCCC1 (stereo not drawn),-9.34%
5,Cc1nc(C)n(C2CCCN(C(=O)c3csnn3)C2)n1 (stereo not drawn),-11.1%
6,COc1nn(C)c2c1CCCN(C(=O)c1ccc(C)c(F)c1)C2,-101%
7,COC(=O)CCC(=O)N1CCC2(CN(Cc3ccc(Cl)cc3)C2)C1,-6.67%
8,Cc1ncc(CN2CCC(O)(c3ccccc3F)CC2)cn1,-0.616%
9,O=C(NCC1COCc2c(-c3ccncc3)nnn2C1)[C@H]1CCCO1 (stereo partly drawn),-0.723%
10,Cn1cc(C2CCCN2C(=O)COCCc2ccccc2)cn1 (stereo not drawn),-8.67%
11,CN1CCC(NC(=O)CC2CN(Cc3ccccc3)CCO2)CC1 (stereo not drawn),-5.42%
12,COc1cccc(CN2CCCCC2Cn2nc(C)nc2C)c1 (stereo not drawn),-9.6%
13,Brc1ccc(CNCc2nnc3n2CCCCC3)s1,-16.6%
14,CCC(CO)N(Cc1ccccn1)C(=O)c1ccc(CSC)o1 (stereo not drawn),-0.517%
15,FC(F)(F)c1cccc(N2CCC(NCc3cccnc3)CC2)c1,26.9%
16,CCOC(=O)CNC(=O)N1CCc2onc(-c3ccc(Cl)cc3)c2C1,-16.3%
17,CC(C)c1noc([C@@H]2Cc3[nH]cnc3CN2C(=O)Nc2ccccc2)n1,9.88%
18,CCOc1ccc(CN2C(=O)CC(CC)(CC)C2=O)nc1,0.923%
19,CSc1ncccc1C(=O)NC(C)c1cccc(N2CCOC2=O)c1 (stereo not drawn),-10.4%
20,CNC(=O)C1(c2cnccn2)CCCN1C(=O)c1c(F)cccc1F (stereo not drawn),18.1%
21,COC(=O)CCCC(=O)N1CCC(CO)(CCc2ccccc2)CC1,-11.9%
22,Cc1nn(C)cc1-c1cc(C(=O)NCC(C)(C)c2ccc(F)cc2)n[nH]1,4.21%
23,O=C(NCCCO)Nc1cccc(C[S+]([O-])c2ccccc2)c1 (stereo not drawn),-6.37%

row,Structure (SMILES),cytotoxicity at 70.5 h
1,CN1CC[C@H]2CN(C(=O)c3ccc4sc5c(c4c3)CCNC5=O)C[C@H]21,-1.19%
2,O=C(c1ccoc1)N1CCC2(CC1)C(=O)N(CC1CC1)c1ccccc12,-2.01%
3,COCc1cncc2c1CCN(C(=O)c1cccc(C#N)c1)C2,-8.16%
4,Cc1ncc(CN2CCC(c3nc(O)cc(-c4ccsc4)n3)CC2)cn1,-3.5%
5,CC(=O)c1ccc(N2CCCC(CO)(CCOc3ccccc3)C2)nc1 (stereo not drawn),-13.1%
6,Cc1ccc(N2CCO[C@H]3CN(C(=O)c4cccc(C)n4)C[C@H]32)nn1,-9.8%
7,O=C(CS(=O)(=O)c1ncccc1Cl)NC1CCCc2ccccc21 (stereo not drawn),12%
8,Cc1nc(CN2CCCN(C(=O)c3ccccn3)CC2)oc1C,-10.4%
9,CCn1cc(NC(=O)NCC(O)COc2ccccc2)cn1 (stereo not drawn),-7.02%
10,CS(=O)(=O)N1C[C@H]2CNC[C@@]2(C(=O)NCCOc2ccccc2)C1,-1.07%
11,O=C(Cc1ccc(F)cc1)N1CCN(CC(O)c2ccccc2)CC1 (stereo not drawn),-4.51%
12,CN(C)C(=O)CN1CCC2(CC1)COC2,-5.41%
13,c1ccc(OC[C@@H]2CCC[C@@]23CNCCO3)nc1,10.8%
14,CC1(C)C[C@H](CCNC(=O)c2ccncc2)c2ccccc2O1,-10%
15,Cc1noc([C@]23COC[C@H]2CN(C(=O)COC2CCCC2)C3)n1,-5.12%
16,COc1ccc(Cl)cc1CC(=O)N1CCN(CC(C)(C)O)CC1,-3.48%
17,CN(C)[C@H]1CN(C(=O)CCCc2ccc(F)cc2)C[C@@H]1C1CC1,-7.35%
18,CN(Cc1nnc(C2CC2)n1C)C1CCN(CCS(C)(=O)=O)C1 (stereo not drawn),-6.94%
19,CCc1nc(CNC(C)(CO)C2CCCCC2)no1 (stereo not drawn),15.6%
20,CN(C)CC1CSCCCN1C(=O)c1ccc(=O)[nH]c1 (stereo not drawn),10.8%
21,COCC(=O)N1CCCC(C(=O)N(C)CCn2ccnc2C)C1 (stereo not drawn),3.1%
